Laboratory results published in publication PMC3973950, “Synthesis of 5-arylidine amino-1,3,4-thiadiazol-2-[(N-substituted benzyol)]sulphonamides endowed with potent antioxidants and anticancer activity induces growth inhibition in HEK293, BT474 and NCI-H226 cells” (Medicinal Chemistry Research, 2013).

How the values were obtained:
[1] = In vitro cytotoxicity by MTT assay, NCI-H226; format: cell-based; conditions: human, NCI-H226 lung cancer cells, 0.015 μM, read-out: % Cytotoxicity (100 − % cell survival) of NCI-H226 cell line
Method in brief: (§1)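 First, trypsinized cells went into wells at roughly 10,000 per well for 24 h. Next, medium was replaced with test compounds for 72 h at 37 °C. Finally, MTT was added for 4 h and the propanol-solubilized formazan read at 490 nm.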

[2] = test system: NCI-H226 (lung cancer cell line); assay: In vitro cytotoxicity by MTT assay, NCI-H226; format: cell-based; conditions: Homo sapiens, 72 h, read-out: % Cytotoxicity (100 − % cell survival) of NCI-H226 cell line; for cytotoxicity at 0.005 µM: NCI-H226, 0.005 μM; for cytotoxicity at 0.045 µM: NCI-H226, 0.045 μM; for cytotoxicity at 0.13 µM: NCI-H226, 0.13 μM; for cytotoxicity at 0.41 µM: NCI-H226, 0.41 μM; for cytotoxicity at 1.23 µM: NCI-H226, 1.23 μM; for cytotoxicity at 3.7 µM: NCI-H226, 3.7 μM; for cytotoxicity at 11.11 µM: NCI-H226, 11.11 μM; for cytotoxicity at 33.33 µM: NCI-H226, 33.33 μM; for cytotoxicity at 100 µM: NCI-H226, 100 μM
Method in brief: as §1

[3] = test system: BT474 (breast cancer cell line); assay: In vitro cytotoxicity by MTT assay, BT474; format: cell-based; conditions: Homo sapiens, 72 h, read-out: % cytotoxicity (100 − % cell survival) of BT474 cell line; for cytotoxicity at 0.005 µM: BT-474, 0.005 μM; for cytotoxicity at 0.015 µM: BT-474, 0.015 μM; for cytotoxicity at 0.045 µM: BT-474, 0.045 μM; for cytotoxicity at 0.13 µM: BT-474, 0.13 μM; for cytotoxicity at 0.41 µM: BT-474, 0.41 μM; for cytotoxicity at 1.23 µM: BT-474, 1.23 μM; for cytotoxicity at 3.7 µM: BT-474, 3.7 μM; for cytotoxicity at 11.11 µM: BT-474, 11.11 μM; for cytotoxicity at 33.33 µM: BT-474, 33.33 μM; for cytotoxicity at 100 µM: BT-474, 100 μM
Method in brief: as §1

[4] = Superoxide anion radical scavenging (NBT/NADH/PMS); format: biochemical; conditions: Conc. ± SD; standard catechin; read-out: IC50 inhibitory concentration, Superoxide anion
Protocol: Measurement of superoxide anion scavenging activity of the synthesized compound was taken based on the method described by Nishimiki et al. ([1972]) and slightly modified. […] The reaction mixture was incubated at 25 °C for 5 min, and the absorbance at 560 nm was measured against blank samples. Catechin was used as reference compound. All the experiments were performed in triplicate, and the results were averaged. The percentage of inhibition was determined by comparing the results of control and test samples. The IC50 (nM/mL) value are depicted in Table 1.

[5] = In vitro cytotoxicity by MTT assay, HEK 293; format: cell-based, human; conditions: human, HEK 293 cells, read-out: % cytotoxicity (100 − % cell survival) of HEK 293 cell line
Method in brief: as §1

[6] = Nitric oxide radical scavenging (sodium nitroprusside, Griess reaction); format: biochemical; conditions: Conc. ± SD; standard curcumin; read-out: IC50 inhibitory concentration, Nitric oxide radical
Protocol: Nitric oxide generated from sodium nitroprusside in aqueous solution at physiological pH interacts with oxygen to produce nitrite ions, which were measured by the Griess reaction (Marcocci et al., [1994]; Green et al., [1982]). Scavenger of nitric oxide competes with oxygen leading to reduced production of nitric oxide (Mondal et al., [2006]). The reaction mixture (3 mL) containing sodium nitroprusside (10 mM) in phosphate-buffered saline (PBS) and the compounds in different concentrations (10, 20, 30, 40, 50 and 100 μg) were incubated at 25 °C for 150 min. At every 30-min interval, the incubated sample (0.5 mL) was removed and Griess reagent (1 % sulphanilamide, 0.1 % naphthylethylene diamine dihydrochloride in 2 % H3PO4) (0.5 mL) was added. The absorbance of the chromophore formed was measured at 546 nm. All the analyses were performed in triplicate, and the results were averaged. The percentage inhibition of nitric oxide generated was measured by comparing the absorbance values of control and test.

SMILES: O=C(NS(=O)(=O)c1nnc(N=Cc2ccccc2)s1)c1ccccc1 [Compound 9a, N-{[5-(Benzylidenamino)-1,3,4-thiadiazol-2-yl]sulphonyl} benzamide]
- cytotoxicity at 72 h, 0.015 µM [1]: 34.8%
- cytotoxicity at 0.005 µM [2]: 33.3%
- cytotoxicity at 0.045 µM [2]: 35.3%
- cytotoxicity at 0.13 µM [2]: 36.1%
- cytotoxicity at 0.41 µM [2]: 37%
- cytotoxicity at 1.23 µM [2]: 37.9%
- cytotoxicity at 3.7 µM [2]: 38.1%
- cytotoxicity at 11.11 µM [2]: 39.1%
- cytotoxicity at 33.33 µM [2]: 41.1%
- cytotoxicity at 100 µM [2]: 42.4%
- cytotoxicity at 0.005 µM [3]: 35.3%
- cytotoxicity at 0.015 µM [3]: 35.8%
- cytotoxicity at 0.045 µM [3]: 36.4%
- cytotoxicity at 0.13 µM [3]: 37%
- cytotoxicity at 0.41 µM [3]: 38%
- cytotoxicity at 1.23 µM [3]: 39%
- cytotoxicity at 3.7 µM [3]: 40.2%
- cytotoxicity at 11.11 µM [3]: 40.6%
- cytotoxicity at 33.33 µM [3]: 41.5%
- cytotoxicity at 100 µM [3]: 66%
- IC50 [4]: 152 ± 14.4 µM
- cytotoxicity at 72 h, 0.005 µM [5]: 37.4%
- cytotoxicity at 72 h, 0.015 µM [5]: 38.2%
- cytotoxicity at 72 h, 0.045 µM [5]: 39.8%
- cytotoxicity at 72 h, 0.13 µM [5]: 40.7%
- cytotoxicity at 72 h, 0.41 µM [5]: 42.4%
- cytotoxicity at 72 h, 1.23 µM [5]: 43.1%
- cytotoxicity at 72 h, 3.7 µM [5]: 44.2%
- cytotoxicity at 72 h, 11.11 µM [5]: 45.6%
- cytotoxicity at 72 h, 33.33 µM [5]: 46.2%
- cytotoxicity at 72 h, 100 µM [5]: 50.6%
- IC50 [6]: 104 ± 7.5 µM
- melting point: 185 to 187 °C

SMILES: COc1ccc(C=Nc2nnc(S(=O)(=O)NC(=O)c3ccccc3)s2)cc1 [Compound 9d, N-({5-[(4-Methoxybenzylidene)amino]-1,3,4-thiadiazol-2-yl}sulfonyl)benzamide]
- cytotoxicity at 72 h, 0.015 µM [1]: 36.3%
- cytotoxicity at 0.005 µM [2]: 35.6%
- cytotoxicity at 0.045 µM [2]: 37.5%
- cytotoxicity at 0.13 µM [2]: 38.3%
- cytotoxicity at 0.41 µM [2]: 40.6%
- cytotoxicity at 1.23 µM [2]: 41.2%
- cytotoxicity at 3.7 µM [2]: 43.1%
- cytotoxicity at 11.11 µM [2]: 47.8%
- cytotoxicity at 33.33 µM [2]: 48.2%
- cytotoxicity at 100 µM [2]: 53%
- cytotoxicity at 0.005 µM [3]: 33.3%
- cytotoxicity at 0.015 µM [3]: 33.4%
- cytotoxicity at 0.045 µM [3]: 33.5%
- cytotoxicity at 0.13 µM [3]: 34%
- cytotoxicity at 0.41 µM [3]: 34.2%
- cytotoxicity at 1.23 µM [3]: 36.8%
- cytotoxicity at 3.7 µM [3]: 36.8%
- cytotoxicity at 11.11 µM [3]: 37.4%
- cytotoxicity at 33.33 µM [3]: 38%
- cytotoxicity at 100 µM [3]: 39.4%
- IC50 [4]: 74.5 ± 8.3 µM
- cytotoxicity at 72 h, 0.005 µM [5]: 30.6%
- cytotoxicity at 72 h, 0.015 µM [5]: 32.6%
- cytotoxicity at 72 h, 0.045 µM [5]: 33.9%
- cytotoxicity at 72 h, 0.13 µM [5]: 34.8%
- cytotoxicity at 72 h, 0.41 µM [5]: 34.8%
- cytotoxicity at 72 h, 1.23 µM [5]: 35.5%
- cytotoxicity at 72 h, 3.7 µM [5]: 35.8%
- cytotoxicity at 72 h, 11.11 µM [5]: 36.3%
- cytotoxicity at 72 h, 33.33 µM [5]: 38.2%
- cytotoxicity at 72 h, 100 µM [5]: 38.9%
- IC50 [6]: 53 ± 6.74 µM
- melting point: 215 to 217 °C

SMILES: O=C(NS(=O)(=O)c1nnc(N=Cc2ccc(O)cc2)s1)c1ccccc1 [Compound 9e, N-({5-[(4-Hydroxybenzylidene)amino]-1,3,4-thiadiazol-2-yl}sulfonyl)benzamide]
- cytotoxicity at 72 h, 0.015 µM [1]: 40.3%
- cytotoxicity at 0.005 µM [2]: 39.1%
- cytotoxicity at 0.045 µM [2]: 41.9%
- cytotoxicity at 0.13 µM [2]: 42.5%
- cytotoxicity at 0.41 µM [2]: 43.4%
- cytotoxicity at 1.23 µM [2]: 45.8%
- cytotoxicity at 3.7 µM [2]: 47.6%
- cytotoxicity at 11.11 µM [2]: 48.2%
- cytotoxicity at 33.33 µM [2]: 49.3%
- cytotoxicity at 100 µM [2]: 51.4%
- cytotoxicity at 0.005 µM [3]: 25.2%
- cytotoxicity at 0.015 µM [3]: 26.4%
- cytotoxicity at 0.045 µM [3]: 27.3%
- cytotoxicity at 0.13 µM [3]: 28.9%
- cytotoxicity at 0.41 µM [3]: 29.9%
- cytotoxicity at 1.23 µM [3]: 31.9%
- cytotoxicity at 3.7 µM [3]: 37.9%
- cytotoxicity at 11.11 µM [3]: 41.8%
- cytotoxicity at 33.33 µM [3]: 47.5%
- cytotoxicity at 100 µM [3]: 56.2%
- IC50 [4]: 136 ± 22.5 µM
- cytotoxicity at 72 h, 0.005 µM [5]: 25.3%
- cytotoxicity at 72 h, 0.015 µM [5]: 26.7%
- cytotoxicity at 72 h, 0.045 µM [5]: 26.6%
- cytotoxicity at 72 h, 0.13 µM [5]: 28.3%
- cytotoxicity at 72 h, 0.41 µM [5]: 29.8%
- cytotoxicity at 72 h, 1.23 µM [5]: 30.3%
- cytotoxicity at 72 h, 3.7 µM [5]: 31.4%
- cytotoxicity at 72 h, 11.11 µM [5]: 34.2%
- cytotoxicity at 72 h, 33.33 µM [5]: 37.6%
- cytotoxicity at 72 h, 100 µM [5]: 39.6%
- IC50 [6]: 155 ± 17.6 µM
- melting point: 178 to 180 °C
